Measurements published in US20250352505A1, “COMPOSITIONS AND METHODS OF TREATING RESPIRATORY SYNCYTIAL VIRUS” (University of South Florida, priority 2023, published 2025).

How the values were obtained:
HIV gene expression = details: cited from earlier work
Candida strains = experiment: Antifungal screening; type: cell-based; details: several Candida strains / fungal screens
[1] = system: recombinant RSV encoding Renilla luciferase (rA2-Rluc); experiment: RSV antiviral assay (Renilla luciferase reporter RSV in A549 cells); type: cell-based, respiratory syncytial virus; details: for activity against RSV (in words): inhibition of RSV gene expression / viral transcription; for IC50: rA2-Rluc in A549 cells, 24 h, luciferase activity, read-out: IC50 against RSV
Method: A549 (CCL-185, ATCC) cells were seeded at 1.6×10^4 cells in 100 μl of 5% FBS/1× penicillin-streptomycin/F12 medium per well in 96-well uClear® black plates with clear bottom (Greiner 655090). Cells were infected with 400 PFU/well of a recombinant RSV encoding Renilla luciferase as an additional transcription unit (rA2-Rluc^22) in total volume of 50 μL/well and allowed to adsorb for 1 h. Purified compounds were serially diluted two-fold in triplicate and 50 μL/well of the diluted extracts were added to the infected cells. After further incubation at 37° C. and 5% CO2 for 24 h, the supernatants were removed and cells were lysed using Renilla lysis buffer (Promega). Luciferase activity was measured with the Renilla Luciferase reagent (Promega) and BioTek Synergy Mx microplate luminometer using Gen5 version 2.00.18 software. RSV antiviral effect for test samples was determined by normalizing to DMSO-treated control samples and multiplying by 100 to obtain percent of control. Statistical analysis was performed using GraphPad Prism software version 9.4.1.

ESKAPE pathogens = experiment: Antibacterial screening; type: cell-based; details: ESKAPE pathogens / bacterial screens
MRSA = details: cited from earlier work
[2] = system: panel of tumor cell lines; details: cited from earlier work

Compound	antifungal activity (Candida strains)	activity against RSV (in words) [1]	antibacterial activity (ESKAPE pathogens)	other results
anvilone A	–	–	–	HIV gene expression (HIV gene expression): turned on HIV gene expression
CC(=O)OC1CC2(C)C(O)C(C3CC(=O)C(C)=CC3O)=CCC2C2(C)CCCC(C)(C)C12 (stereo not shown) [Compound 3, Suberitenone F]	inactive	active	inactive	–
oxaspirosuberitenone	–	–	–	antibacterial activity against MRSA (MRSA): mild antibacterial activity
isosuberitenone B	–	–	–	cytotoxicity against a panel of tumor cell lines [2]: weak cytotoxicity
CC(=O)OC1CC2(C)C=C3C4CC(=O)C(C)(CC4O)C3CC2C2(C)CCCC(C)(C)C12 (stereo not shown) [Compound 1, Neosuberitenone A]	–	–	–	viral inhibitory effects at 25 μg/mL ([1]; 25 μg/mL): did not show any viral inhibitory effects
CC(=O)OC1CC2(C)CC(O)(C3CC(=O)C(C)=CC3O)CCC2C2(C)CCCC(C)(C)C12 (stereo not shown) [Compound 11, suberitenone B]	inactive	active	inactive	IC50 [1]: 3.5 µM
19-episuberitenone B	–	–	–	cytotoxicity against a panel of tumor cell lines [2]: weak cytotoxicity
CC(=O)OC1CC2(C)C=C(C3CC(=O)C(C)=CC3O)CCC2C2(C)CCCC(C)(C)C12 (stereo not shown) [Compound 10, suberitenone A]	inactive	active	inactive	IC50 [1]: 7.9 µM
